Laboratory results as given in patent publication US9126933B2, “Soft PDE4 inhibitors” (Amakem NV, priority 2011, dated 2015).
In brackets after ≈: the same amount, converted by molar mass.

Experiments:
recombinant PDE4D2 = target: T1, recombinant PDE4D2 (Homo sapiens, UniProt Q08499); test: PDE4 inhibitory activity screening, PDE4D2 (HTRF, cAMP substrate); type: biochemical; conditions: 40 nM cAMP, 30 minutes, room temperature
T1 construct: host or cells: Sf9 insect cells
Experimental: (§1) Various concentrations of the test compounds were incubated with recombinant PDE4B1 or PDE4D2 (isolated from Sf9 cells), using 40 nM cAMP as enzyme substrate. Incubation time was set to 30 minutes. The reaction was carried out at room temperature. At the end of the incubation time, residual cAMP concentration was determined, using HTRF as detection method.
(§2) The IC50 values (concentration causing a half-maximal inhibition of control specific activity) and Hill coefficients (nH) were determined by non-linear regression analysis of the inhibition curves generated with mean replicate values using Hill equation curve fitting (Y=D+[(A−D)/(1+(C/C50)nH)], where Y=specific activity, D=minimum specific activity, A=maximum specific activity, C=compound concentration, C50=IC50 and nH=slope factor).

recombinant PDE4B1 = target: T2, recombinant PDE4B1 (Homo sapiens, UniProt Q07343); test: PDE4 inhibitory activity screening, PDE4B1 (HTRF, cAMP substrate); type: biochemical; conditions: 40 nM cAMP, 30 minutes, room temperature
T2 construct: host or cells: Sf9 insect cells
T2 sequence (Q07343 whole entry): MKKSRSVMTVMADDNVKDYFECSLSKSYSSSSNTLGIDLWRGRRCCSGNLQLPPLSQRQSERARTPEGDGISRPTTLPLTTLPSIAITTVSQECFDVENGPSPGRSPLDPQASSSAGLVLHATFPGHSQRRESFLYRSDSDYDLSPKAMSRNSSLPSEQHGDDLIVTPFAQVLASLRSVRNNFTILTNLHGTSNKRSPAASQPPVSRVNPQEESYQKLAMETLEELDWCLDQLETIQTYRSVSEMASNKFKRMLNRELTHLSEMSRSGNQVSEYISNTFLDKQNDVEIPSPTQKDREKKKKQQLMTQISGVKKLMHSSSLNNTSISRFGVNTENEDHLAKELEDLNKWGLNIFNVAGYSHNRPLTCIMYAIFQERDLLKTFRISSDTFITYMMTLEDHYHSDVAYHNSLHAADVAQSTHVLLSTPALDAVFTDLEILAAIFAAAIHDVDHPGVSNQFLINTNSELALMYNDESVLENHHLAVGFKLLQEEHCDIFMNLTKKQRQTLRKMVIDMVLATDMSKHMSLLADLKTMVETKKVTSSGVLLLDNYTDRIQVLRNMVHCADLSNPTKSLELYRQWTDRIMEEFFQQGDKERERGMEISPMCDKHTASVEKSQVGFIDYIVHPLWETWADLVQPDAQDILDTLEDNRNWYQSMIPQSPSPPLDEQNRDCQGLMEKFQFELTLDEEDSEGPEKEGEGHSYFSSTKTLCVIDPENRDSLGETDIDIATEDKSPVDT
Experimental: as §1, §2

[1] = Solubility in aqueous solution (PBS pH 7.4); type: physicochemical; conditions: phosphate buffer saline (PBS), pH 7.4, aqueous buffer, kinetic from dmso stock; PBS pH7.4, 24 h, room temperature, theoretical concentration 200 μM
Experimental: Using a 10 mM stock solution of each compound in 100% DMSO, dilutions were prepared to a theoretical concentration of 200 μM in both phosphate buffer saline (PBS), pH7.4 and in 100% DMSO (as reference). Solutions (triplicates) were incubated at room temperature for 24 h on a shaker at 100 rpm. The solutions were then centrifugated at 13000 rpm for 30 min and the supernatant was further diluted to 2 μM in methanol. The supernatant was then analyzed by LC-MSMS. The concentration of compound in PBS supernatant was determined by comparing the MS peak area with that of the reference solution in DMSO.

[2] = Stability assay in human plasma; type: in vitro ADME; conditions: 1 μM compound
Experimental: Compounds are incubated at a concentration of 1 μM in rat (mice/rabbit/dog/rabbit) or human plasma. Samples are taken at fixed time points and the remnant of compound is determined by LC-MS/MS after protein precipitation. Half life of the compound is expressed in minutes.

[3] = Membrane permeability, Pampa assay; conditions: for Papp at 5 h, 10 μM: PAMPA, pH 7.4
Experimental: The capacity of compounds of the invention to cross a lipophilic membrane was evaluated in a Pampa assay, using an assay plate containing structured layers of phospholipids supported on a PVDF filter (Benton Dickinson). […] Each compound was tested in triplicate and was prepared as a 10 μM solution in 10 mM PBS pH=7.4 buffer containing 2% DMSO. Compounds were dosed in the donor chamber of the assay plate and incubated for 5 hours, at room temperature. Additionally, an equilibrium solution plate containing 6 μM of test compound was prepared. Test compound concentration in donor and acceptor chamber and in the equilibrium plate was quantified using HPLC-MS/MS. The subsequently calculated permeability coefficients were reported as Papp.

[4] = Stability assay in aqueous humor; type: in vitro ADME; conditions: rabbit aqueous humor, 1 μM compound
Experimental: Compounds are incubated at a concentration of 1 μM in human or animal (e.g. rabbit) aqueous humor (AH). Samples are taken at fixed time points and the remnant of compound is determined by LC-MS/MS after protein precipitation.

T1 sequence (Q08499 303-809 limits assumed): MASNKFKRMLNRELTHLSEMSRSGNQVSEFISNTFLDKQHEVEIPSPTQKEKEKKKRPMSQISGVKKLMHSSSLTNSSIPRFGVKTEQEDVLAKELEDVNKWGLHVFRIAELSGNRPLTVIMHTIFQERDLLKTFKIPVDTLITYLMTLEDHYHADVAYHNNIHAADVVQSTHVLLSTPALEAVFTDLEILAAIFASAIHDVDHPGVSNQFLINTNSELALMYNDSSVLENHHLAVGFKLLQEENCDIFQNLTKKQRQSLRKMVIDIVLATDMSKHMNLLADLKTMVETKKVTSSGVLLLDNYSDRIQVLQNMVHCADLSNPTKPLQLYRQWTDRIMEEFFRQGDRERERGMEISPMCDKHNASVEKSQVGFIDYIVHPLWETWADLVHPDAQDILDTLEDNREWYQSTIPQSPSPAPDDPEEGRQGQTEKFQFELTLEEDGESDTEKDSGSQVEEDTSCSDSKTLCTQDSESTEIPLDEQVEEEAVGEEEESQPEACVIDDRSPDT

SMILES | IC50 (recombinant PDE4D2) [nM] | IC50 (recombinant PDE4B1) [nM] | solubility at 24 h [1] [µM] | half-life at 1 μM [2] [min] | Papp at 5 h, 10 μM [3] [×10⁻⁶ cm/s] | half-life at 1 μM [4] [min] | Papp (Pampa; 10^−6 cm/s) ([3]; 10 μM in 10 mM PBS pH=7.4, 2% DMSO, 5 hours, room temperature)
O=C(CCCCOc1cc(C(=O)Nc2c(Cl)cncc2Cl)ccc1OC(F)F)Oc1ccccc1F [Compound 3] | 100 to 500 | 10 to 100 | < 10 | < 15 |  |  | 
O=C(CCCCOc1cc(C(=O)Nc2c(Cl)cncc2Cl)ccc1OC(F)F)OCc1ccccc1 [Compound 4] | 100 to 500 | 10 to 100 | < 10 |  |  |  | 
O=C(Nc1c(Cl)cncc1Cl)c1ccc(OC(F)F)c(OCCCSC2CCOC2=O)c1 (stereo not shown) [Compound 13] | < 10 | < 10 | 10 to 100 (≈ 5.07 to 50.7 µg/mL) | < 15 |  |  | 6.6 10^−6 cm/s
COC(=O)CNCCCOc1cc(C(=O)Nc2c(Cl)cncc2Cl)ccc1OC(F)F [Compound 15] | 10 to 100 | 10 to 100 | > 100 | 15 to 60 | 5.6 | 60 to 120 | 
COC(=O)Cc1cccc(NCCCOc2cc(C(=O)Nc3c(Cl)cncc3Cl)ccc2OC(F)F)c1 [Compound 16] | 10 to 100 | < 10 | < 10 | < 15 |  |  | 
COC(=O)c1cccc(SCCCOc2cc(C(=O)Nc3c(Cl)cncc3Cl)ccc2OC(F)F)c1 [Compound 17] | 100 to 500 | 100 to 500 | < 10 |  |  |  | 
COC(=O)c1ccc(SCCCOc2cc(C(=O)Nc3c(Cl)cncc3Cl)ccc2OC(F)F)cc1 [Compound 18] | 100 to 500 | 100 to 500 |  |  |  |  | 
COC(=O)c1ccc(Oc2cc(C(=O)Nc3c(Cl)cncc3Cl)ccc2OC(F)F)cc1 [Compound 21, Methyl 4-(5-((3,5-dichloropyridin-4-yl)carbamoyl)-2-(difluoromethoxy)phenoxy)benzoate] | > 500 | 10 to 100 | 10 to 100 (≈ 4.83 to 48.3 µg/mL) |  |  | > 120 | 
CCOC(=O)c1cccc(Oc2cc(C(=O)Nc3c(Cl)cncc3Cl)ccc2OC(F)F)c1 [Compound 22, Ethyl 3-(5-((3,5-dichloropyridin-4-yl)carbamoyl)-2-(difluoromethoxy)phenoxy)benzoate] | 100 to 500 | 10 to 100 |  |  |  |  | 
O=C(Nc1c(Cl)cncc1Cl)c1ccc(OC(F)F)c(OCCCSc2cccc(C(=O)OCCO)c2)c1 [Compound 23] | 10 to 100 | 10 to 100 |  |  |  |  | 
CN(C)CCOC(=O)c1cccc(SCCCOc2cc(C(=O)Nc3c(Cl)cncc3Cl)ccc2OC(F)F)c1 [Compound 24] | 10 to 100 | 10 to 100 |  | < 15 |  |  | 
O=C(Nc1c(Cl)cncc1Cl)c1ccc(OC(F)F)c(OCCCSc2ccc(C(=O)OCCO)cc2)c1 [Compound 25] | 10 to 100 | 10 to 100 |  |  |  |  | 
O=C(Nc1c(Cl)cncc1Cl)c1ccc(OC(F)F)c(Oc2ccc(C(=O)OCCO)cc2)c1 [Compound 27] | 10 to 100 | 10 to 100 |  |  | 2.3 | > 120 | 
CN(C)CCOC(=O)c1ccc(Oc2cc(C(=O)Nc3c(Cl)cncc3Cl)ccc2OC(F)F)cc1 [Compound 28] | 100 to 500 | 10 to 100 |  | 15 to 60 | 7.9 | 60 to 120 | 
O=C(Nc1c(Cl)cncc1Cl)c1ccc(OC(F)F)c(Oc2cccc(C(=O)OCCO)c2)c1 [Compound 29] | 10 to 100 | < 10 |  |  | 5.1 |  | 
CN(C)CCOC(=O)c1cccc(Oc2cc(C(=O)Nc3c(Cl)cncc3Cl)ccc2OC(F)F)c1 [Compound 30] | 10 to 100 | < 10 |  | < 15 | 5.3 |  | 
O=C(Nc1c(Cl)cncc1Cl)c1ccc(OC(F)F)c(OCCCCNC(CCO)C(=O)O)c1 (stereo not shown) [Met1] | 100 to 500 | 100 to 500 |  |  | 0.03 |  | 
O=C(Nc1c(Cl)cncc1Cl)c1ccc(OC(F)F)c(OCCCNC(CCO)C(=O)O)c1 (stereo not shown) [Met2] | > 500 | > 500 |  |  | 0.02 |  | 
O=C(O)CNCCCOc1cc(C(=O)Nc2c(Cl)cncc2Cl)ccc1OC(F)F [Met3, 2-[(3-{5-[(3,5-dichloropyridin-4-yl)carbamoyl]-2-(difluoromethoxy)phenoxy}propyl)amino]acetic acid] | > 500 | > 500 |  |  | 0.02 |  | 
O=C(Nc1c(Cl)cncc1Cl)c1ccc(OC(F)F)c(OCC2CC2)c1 [Roflumilast, reference compound] |  |  | < 10 |  |  |  | 

Continued, in another order:

IC50 (recombinant PDE4D2) [nM] | IC50 (recombinant PDE4B1) [nM] | solubility at 24 h [1] [µM] | half-life at 1 μM [2] [min] | Papp at 5 h, 10 μM [3] [×10⁻⁶ cm/s] | half-life at 1 μM [4] [min] | SMILES | Papp (Pampa; 10^−6 cm/s) ([3]; 10 μM in 10 mM PBS pH=7.4, 2% DMSO, 5 hours, room temperature)
10 to 100 | 10 to 100 | 10 to 100 (≈ 4.91 to 49.1 µg/mL) |  |  |  | CCCOC(=O)CCCCOc1cc(C(=O)Nc2c(Cl)cncc2Cl)ccc1OC(F)F [Compound 1, propyl 5-[5-{[(3,5-dichloropyridin-4-yl)amino]carbonyl}-2-(difluoromethoxy)phenoxy]pentanoate] | 
10 to 100 | 10 to 100 | 10 to 100 (≈ 5.25 to 52.5 µg/mL) | < 15 |  |  | O=C(CCCCOc1cc(C(=O)Nc2c(Cl)cncc2Cl)ccc1OC(F)F)Oc1ccccc1 [Compound 2, phenyl 5-[5-{[(3,5-dichloropyridin-4-yl)amino]carbonyl}-2-(difluoromethoxy)phenoxy]pentanoate] | 
< 10 | < 10 | > 100 | 15 to 60 |  |  | O=C(CCCCOc1cc(C(=O)Nc2c(Cl)cncc2Cl)ccc1OC(F)F)OCCN1CCOCC1 [Compound 5] | 
10 to 100 | < 10 |  | 15 to 60 |  |  | O=C(CCCCOc1cc(C(=O)Nc2c(Cl)cncc2Cl)ccc1OC(F)F)OCC1CCCO1 (stereo not shown) [Compound 6] | 
10 to 100 | < 10 | > 100 | 15 to 60 | 9.2 |  | COCCOC(=O)CCCCOc1cc(C(=O)Nc2c(Cl)cncc2Cl)ccc1OC(F)F [Compound 7] | 
10 to 100 | < 10 | > 100 | < 15 | 7.5 |  | O=C(CCCCOc1cc(C(=O)Nc2c(Cl)cncc2Cl)ccc1OC(F)F)OCCN1CCCC1 [Compound 8] | 
10 to 100 | 10 to 100 | 10 to 100 (≈ 5.2 to 52 µg/mL) | < 15 | 3 |  | CN(C)CCOC(=O)CCCCOc1cc(C(=O)Nc2c(Cl)cncc2Cl)ccc1OC(F)F [Compound 9] | 
< 10 | < 10 | > 100 | < 15 | 3.7 |  | O=C(CCCCOc1cc(C(=O)Nc2c(Cl)cncc2Cl)ccc1OC(F)F)NCCSC1CCOC1=O (stereo not shown) [Compound 10] | 
< 10 | 10 to 100 |  | < 15 |  |  | CN(C)CCOC(=O)c1ccc(SCCCOc2cc(C(=O)Nc3c(Cl)cncc3Cl)ccc2OC(F)F)cc1 [Compound 26] | 
